Test results as given in ChEMBL document CHEMBL1909046, “DrugMatrix in vitro pharmacology data”.

Tests used:
[1] = biological target: Beta-1 adrenergic receptor (Homo sapiens, UniProt P08588); test: DRUGMATRIX: Adrenergic beta1 radioligand binding (ligand: [125I] Cyanopindolol); format: cell membranes, CHO-K1, Membrane; conditions: cho-k1; Not Active = under 50% inhibition at 10 µM
[2] = DRUGMATRIX: beta-Lactamase enzyme inhibition (substrate: Nitrocefin); design: species or system Bacillus cereus; conditions: Not Active = under 50% inhibition at 10 µM
Cannabinoid receptor 1 = Cannabinoid receptor 1 (Homo sapiens, UniProt P21554); format: cell membranes, Membrane; conditions: chem-1; further: in other assays of this panel Not Active means under 50% inhibition at 10 µM
Sequence of Cannabinoid receptor 1 (P21554 whole entry): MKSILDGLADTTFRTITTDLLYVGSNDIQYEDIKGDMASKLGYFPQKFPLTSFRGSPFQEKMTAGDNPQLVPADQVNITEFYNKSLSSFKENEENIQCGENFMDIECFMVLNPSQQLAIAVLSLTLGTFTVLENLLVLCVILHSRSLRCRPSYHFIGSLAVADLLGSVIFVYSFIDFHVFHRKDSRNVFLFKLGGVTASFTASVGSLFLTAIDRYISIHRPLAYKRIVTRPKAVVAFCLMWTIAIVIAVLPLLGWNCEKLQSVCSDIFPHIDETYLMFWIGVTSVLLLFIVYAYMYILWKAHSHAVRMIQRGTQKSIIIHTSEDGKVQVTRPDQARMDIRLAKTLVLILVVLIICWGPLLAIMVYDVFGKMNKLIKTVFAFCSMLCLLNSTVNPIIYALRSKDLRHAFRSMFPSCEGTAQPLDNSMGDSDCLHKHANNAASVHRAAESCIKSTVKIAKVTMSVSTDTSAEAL

[3] = biological target: T1, C-X-C chemokine receptor type 2 (Homo sapiens, UniProt P25025); format: cell membranes, Membrane; conditions: cho-k1; further: in other assays of this panel Not Active means under 50% inhibition at 10 µM
T1 sequence (P25025 whole entry): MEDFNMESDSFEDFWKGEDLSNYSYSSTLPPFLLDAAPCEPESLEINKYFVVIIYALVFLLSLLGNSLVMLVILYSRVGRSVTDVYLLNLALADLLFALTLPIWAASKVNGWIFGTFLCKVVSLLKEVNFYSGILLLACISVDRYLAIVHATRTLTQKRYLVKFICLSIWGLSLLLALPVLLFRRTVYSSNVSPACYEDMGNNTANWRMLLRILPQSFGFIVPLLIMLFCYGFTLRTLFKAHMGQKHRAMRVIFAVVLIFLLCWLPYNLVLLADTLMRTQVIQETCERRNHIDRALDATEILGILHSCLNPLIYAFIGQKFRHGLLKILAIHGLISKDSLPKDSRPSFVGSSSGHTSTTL

[4] = biological target: T2, Cholecystokinin receptor type A (Homo sapiens, UniProt P32238); format: cell membranes, Membrane; conditions: 1321-n1; further: in other assays of this panel Not Active means under 50% inhibition at 10 µM
T2 sequence (P32238 whole entry): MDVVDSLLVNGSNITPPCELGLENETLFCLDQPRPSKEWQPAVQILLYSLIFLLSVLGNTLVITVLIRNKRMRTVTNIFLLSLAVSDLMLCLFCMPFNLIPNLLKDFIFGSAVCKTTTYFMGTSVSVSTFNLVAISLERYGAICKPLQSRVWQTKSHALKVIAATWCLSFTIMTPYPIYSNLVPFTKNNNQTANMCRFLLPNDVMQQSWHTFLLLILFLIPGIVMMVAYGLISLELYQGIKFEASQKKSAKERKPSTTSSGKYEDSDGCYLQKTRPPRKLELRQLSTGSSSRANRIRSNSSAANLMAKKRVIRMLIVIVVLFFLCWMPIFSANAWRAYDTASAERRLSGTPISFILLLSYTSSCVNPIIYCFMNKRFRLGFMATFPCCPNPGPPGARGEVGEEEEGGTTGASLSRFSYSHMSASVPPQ

Insulin receptor = Insulin receptor (Rattus norvegicus, UniProt P15127); format: cell membranes, Wistar, Liver, Membrane; further: in other assays of this panel Not Active means under 50% inhibition at 10 µM
Sequence of Insulin receptor (P15127 27-759 limits assumed): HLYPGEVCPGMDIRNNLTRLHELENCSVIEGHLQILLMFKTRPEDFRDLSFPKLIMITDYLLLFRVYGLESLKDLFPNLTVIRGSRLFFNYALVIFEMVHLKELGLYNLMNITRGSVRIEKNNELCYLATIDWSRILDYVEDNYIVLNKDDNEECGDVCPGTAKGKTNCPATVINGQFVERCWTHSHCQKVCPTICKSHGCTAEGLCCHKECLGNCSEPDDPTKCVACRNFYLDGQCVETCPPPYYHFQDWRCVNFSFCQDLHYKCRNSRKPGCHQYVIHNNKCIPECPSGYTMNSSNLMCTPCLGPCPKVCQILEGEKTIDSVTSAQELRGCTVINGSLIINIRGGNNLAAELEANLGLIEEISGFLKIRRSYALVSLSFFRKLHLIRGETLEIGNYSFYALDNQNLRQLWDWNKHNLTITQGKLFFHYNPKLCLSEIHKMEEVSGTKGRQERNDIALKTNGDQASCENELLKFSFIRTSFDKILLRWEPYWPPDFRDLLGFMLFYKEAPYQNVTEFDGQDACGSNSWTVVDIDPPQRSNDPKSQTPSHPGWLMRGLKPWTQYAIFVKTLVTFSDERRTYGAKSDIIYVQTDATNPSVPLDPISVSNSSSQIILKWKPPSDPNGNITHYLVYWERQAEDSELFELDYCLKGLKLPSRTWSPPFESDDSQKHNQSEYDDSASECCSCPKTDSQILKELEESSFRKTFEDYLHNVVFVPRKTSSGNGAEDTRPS
Sequence of Insulin receptor (P15127 764-1383 limits assumed): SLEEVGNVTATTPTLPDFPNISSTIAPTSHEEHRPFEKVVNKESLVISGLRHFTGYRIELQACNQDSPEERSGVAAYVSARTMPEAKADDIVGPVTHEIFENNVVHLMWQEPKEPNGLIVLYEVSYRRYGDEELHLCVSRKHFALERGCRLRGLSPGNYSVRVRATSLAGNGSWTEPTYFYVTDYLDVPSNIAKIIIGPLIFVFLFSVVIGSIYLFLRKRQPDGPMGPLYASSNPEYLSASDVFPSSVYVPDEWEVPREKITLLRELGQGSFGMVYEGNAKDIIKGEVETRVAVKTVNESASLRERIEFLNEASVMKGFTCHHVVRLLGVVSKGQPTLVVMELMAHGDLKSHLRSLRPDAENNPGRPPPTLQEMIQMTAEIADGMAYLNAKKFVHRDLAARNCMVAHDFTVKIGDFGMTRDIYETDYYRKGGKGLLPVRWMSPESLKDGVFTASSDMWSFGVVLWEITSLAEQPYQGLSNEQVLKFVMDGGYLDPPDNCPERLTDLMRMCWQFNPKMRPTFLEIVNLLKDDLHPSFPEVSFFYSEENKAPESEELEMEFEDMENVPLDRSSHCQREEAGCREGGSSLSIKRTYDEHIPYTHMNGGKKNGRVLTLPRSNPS

[5] = biological target: T3, Cysteinyl leukotriene receptor 1 (Homo sapiens, UniProt Q9Y271); format: cell membranes, CHO-K1, Membrane; conditions: cho-k1; further: in other assays of this panel Not Active means under 50% inhibition at 10 µM
T3 sequence (Q9Y271 whole entry): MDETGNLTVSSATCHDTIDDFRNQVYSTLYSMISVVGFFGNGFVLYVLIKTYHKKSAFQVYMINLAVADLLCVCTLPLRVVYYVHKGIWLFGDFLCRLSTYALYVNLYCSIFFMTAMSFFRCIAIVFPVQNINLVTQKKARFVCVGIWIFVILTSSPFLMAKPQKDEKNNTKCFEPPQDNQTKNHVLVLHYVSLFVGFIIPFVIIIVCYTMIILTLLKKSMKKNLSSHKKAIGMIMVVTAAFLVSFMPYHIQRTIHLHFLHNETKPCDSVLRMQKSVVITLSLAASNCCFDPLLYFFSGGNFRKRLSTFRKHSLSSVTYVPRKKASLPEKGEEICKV

[6] = biological target: T4, Nitric oxide synthase, inducible (Mus musculus, UniProt P29477); design: species or system Escherichia coli
T4 sequence (P29477 whole entry): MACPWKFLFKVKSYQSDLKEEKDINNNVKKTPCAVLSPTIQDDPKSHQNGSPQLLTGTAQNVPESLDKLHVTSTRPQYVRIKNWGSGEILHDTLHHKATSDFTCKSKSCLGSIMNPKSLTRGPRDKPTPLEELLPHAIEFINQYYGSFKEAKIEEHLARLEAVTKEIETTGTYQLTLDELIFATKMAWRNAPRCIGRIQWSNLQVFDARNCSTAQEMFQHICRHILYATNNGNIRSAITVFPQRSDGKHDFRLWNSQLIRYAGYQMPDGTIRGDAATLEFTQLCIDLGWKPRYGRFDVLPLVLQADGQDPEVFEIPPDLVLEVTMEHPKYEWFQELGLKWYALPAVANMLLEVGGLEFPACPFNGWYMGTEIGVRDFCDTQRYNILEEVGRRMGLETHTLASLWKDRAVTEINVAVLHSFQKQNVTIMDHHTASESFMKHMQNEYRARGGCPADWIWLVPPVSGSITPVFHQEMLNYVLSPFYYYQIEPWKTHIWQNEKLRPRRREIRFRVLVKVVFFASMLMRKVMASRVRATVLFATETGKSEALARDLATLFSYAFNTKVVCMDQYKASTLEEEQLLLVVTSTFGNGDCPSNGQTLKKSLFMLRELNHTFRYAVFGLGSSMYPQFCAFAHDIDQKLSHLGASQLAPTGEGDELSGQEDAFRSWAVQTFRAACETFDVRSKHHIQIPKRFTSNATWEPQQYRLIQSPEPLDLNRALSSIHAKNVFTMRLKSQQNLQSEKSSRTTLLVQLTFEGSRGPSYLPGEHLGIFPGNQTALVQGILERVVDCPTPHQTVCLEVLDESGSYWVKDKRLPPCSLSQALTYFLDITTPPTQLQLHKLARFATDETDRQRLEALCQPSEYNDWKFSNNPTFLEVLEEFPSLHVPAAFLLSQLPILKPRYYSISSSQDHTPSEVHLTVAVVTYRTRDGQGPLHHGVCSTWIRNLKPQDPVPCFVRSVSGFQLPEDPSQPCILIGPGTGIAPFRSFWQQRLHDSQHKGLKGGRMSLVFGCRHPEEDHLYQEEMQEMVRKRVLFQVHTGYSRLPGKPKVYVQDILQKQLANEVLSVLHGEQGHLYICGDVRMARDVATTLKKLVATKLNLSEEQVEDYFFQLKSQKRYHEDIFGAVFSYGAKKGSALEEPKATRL

Sequence of Beta-1 adrenergic receptor (P08588 whole entry): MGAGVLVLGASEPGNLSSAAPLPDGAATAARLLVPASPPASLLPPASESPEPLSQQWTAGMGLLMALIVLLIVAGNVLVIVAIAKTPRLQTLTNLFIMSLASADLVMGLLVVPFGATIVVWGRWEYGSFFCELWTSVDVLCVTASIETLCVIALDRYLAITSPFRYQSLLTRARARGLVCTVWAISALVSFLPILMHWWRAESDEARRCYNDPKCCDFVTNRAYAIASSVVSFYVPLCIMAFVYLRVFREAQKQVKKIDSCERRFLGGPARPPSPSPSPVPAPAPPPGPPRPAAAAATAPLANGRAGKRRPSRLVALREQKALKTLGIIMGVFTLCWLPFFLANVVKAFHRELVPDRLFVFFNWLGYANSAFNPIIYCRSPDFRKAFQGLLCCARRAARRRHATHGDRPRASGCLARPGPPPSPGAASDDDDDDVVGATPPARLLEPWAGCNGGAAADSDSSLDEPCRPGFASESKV

CC(C)CN(C[C@@H](O)[C@H](Cc1ccccc1)NC(=O)O[C@H]1CCOC1)S(=O)(=O)c1ccc(N)cc1
Not Active: IC50 [1] | IC50 [2] | Ki [2] | IC50 (Cannabinoid receptor 1) | IC50 [3] | IC50 [4] | IC50 (Insulin receptor) | IC50 [5] | IC50 [6]

c1ccc(Nc2ccc(Nc3ccccc3)cc2)cc1
Not Active: IC50 [1] | IC50 [2] | Ki [2] | IC50 (Cannabinoid receptor 1) | IC50 [3] | IC50 [4] | IC50 (Insulin receptor) | IC50 [5] | IC50 [6]

COc1cc2c3cc1Oc1cc(ccc1O)C[C@@H]1c4c(cc(OC)c(O)c4Oc4ccc(cc4)C[C@@H]3N(C)CC2)CC[N+]1(C)C.[Cl-]
Not Active: IC50 [1] | IC50 [2] | Ki [2] | IC50 (Cannabinoid receptor 1) | IC50 [3] | IC50 [4] | IC50 (Insulin receptor) | IC50 [5] | IC50 [6]

NC(=O)N1c2ccccc2CCc2ccccc21
Not Active: IC50 [1] | IC50 [2] | Ki [2] | IC50 (Cannabinoid receptor 1) | IC50 [3] | IC50 [4] | IC50 (Insulin receptor) | IC50 [5] | IC50 [6]

O=C1CC[C@@H](N2C(=O)c3ccccc3C2=O)C(=O)N1
Not Active: IC50 [1] | IC50 [2] | Ki [2] | IC50 (Cannabinoid receptor 1) | IC50 [3] | IC50 [4] | IC50 (Insulin receptor) | IC50 [5] | IC50 [6]

Cc1onc(O)c1CC(N)C(=O)O (racemic) [(R,S)-AMPA]
Not Active: IC50 [1] | IC50 [2] | Ki [2] | IC50 (Cannabinoid receptor 1) | IC50 [3] | IC50 [4] | IC50 (Insulin receptor) | IC50 [5] | IC50 [6]

Cc1ccc2cc3c(ccc4ccccc43)c3c2c1CC3 [3-METHYLCHOLANTHRENE]
Not Active: IC50 [1] | IC50 [2] | Ki [2] | IC50 (Cannabinoid receptor 1) | IC50 [3] | IC50 [4] | IC50 (Insulin receptor) | IC50 [5] | IC50 [6]

CC[C@@]1(O)C[C@H](O[C@H]2C[C@H](N(C)C)[C@H](O[C@H]3C[C@H](O)[C@H](O[C@H]4CCC(=O)[C@H](C)O4)[C@H](C)O3)[C@H](C)O2)c2c(cc3c(c2O)C(=O)c2c(O)cccc2C3=O)[C@H]1C(=O)OC [ACLARUBICIN]
Not Active: IC50 [1] | IC50 [2] | Ki [2] | IC50 (Cannabinoid receptor 1) | IC50 [3] | IC50 [4] | IC50 (Insulin receptor) | IC50 [5] | IC50 [6]

Nc1nc2c(ncn2COCCO)c(=O)[nH]1 [ACYCLOVIR]
Not Active: IC50 [1] | IC50 [2] | Ki [2] | IC50 (Cannabinoid receptor 1) | IC50 [3] | IC50 [4] | IC50 (Insulin receptor) | IC50 [5] | IC50 [6]

Cc1c(C)c2c(c(C)c1O)CC[C@@](C)(CCC[C@H](C)CCC[C@H](C)CCCC(C)C)O2 [ALPHA-TOCOPHEROL]
Not Active: IC50 [1] | IC50 [2] | Ki [2] | IC50 (Cannabinoid receptor 1) | IC50 [3] | IC50 [4] | IC50 (Insulin receptor) | IC50 [5] | IC50 [6]

CN(C)c1nc(N(C)C)nc(N(C)C)n1 [ALTRETAMINE]
Not Active: IC50 [1] | IC50 [2] | Ki [2] | IC50 (Cannabinoid receptor 1) | IC50 [3] | IC50 [4] | IC50 (Insulin receptor) | IC50 [5] | IC50 [6]

Nc1c(Br)cc(Br)cc1CN[C@H]1CC[C@H](O)CC1 [AMBROXOL]
Not Active: IC50 [1] | IC50 [2] | Ki [2] | IC50 (Cannabinoid receptor 1) | IC50 [3] | IC50 [4] | IC50 (Insulin receptor) | IC50 [5] | IC50 [6]

NCCCCCC(=O)O [AMINOCAPROIC ACID]
Not Active: IC50 [1] | IC50 [2] | Ki [2] | IC50 (Cannabinoid receptor 1) | IC50 [3] | IC50 [4] | IC50 (Insulin receptor) | IC50 [5] | IC50 [6]

CCC1(c2ccc(N)cc2)CCC(=O)NC1=O (stereo not given) [AMINOGLUTETHIMIDE]
Not Active: IC50 [1] | IC50 [2] | Ki [2] | IC50 (Cannabinoid receptor 1) | IC50 [3] | IC50 [4] | IC50 (Insulin receptor) | IC50 [5] | IC50 [6]

Cc1ccc(/N=C/N(C)/C=N/c2ccc(C)cc2C)c(C)c1 [AMITRAZ]
Not Active: IC50 [1] | IC50 [2] | Ki [2] | IC50 (Cannabinoid receptor 1) | IC50 [3] | IC50 [4] | IC50 (Insulin receptor) | IC50 [5] | IC50 [6]

CNCCc1ccccn1 [BETAHISTINE]
Not Active: IC50 [2] | Ki [2] | IC50 (Cannabinoid receptor 1) | IC50 [3] | IC50 [4] | IC50 (Insulin receptor) | IC50 [5] | IC50 [6]

CNCCCN1c2ccccc2CCc2ccccc21 [DESIPRAMINE]
Not Active: IC50 [2] | Ki [2] | IC50 (Cannabinoid receptor 1) | IC50 [3] | IC50 [4] | IC50 (Insulin receptor) | IC50 [5] | IC50 [6]

COc1cc2nc(N3CCN(C(=O)C4COc5ccccc5O4)CC3)nc(N)c2cc1OC (stereo not given) [DOXAZOSIN]
Not Active: IC50 [2] | Ki [2] | IC50 (Cannabinoid receptor 1) | IC50 [3] | IC50 [4] | IC50 (Insulin receptor) | IC50 [5] | IC50 [6]

Nc1nc(N)nc(-c2cc(Cl)ccc2Cl)n1.O=C(O)/C=C\C(=O)O [IRSOGLADINE MALEATE]
Not Active: IC50 [2] | Ki [2] | IC50 (Cannabinoid receptor 1) | IC50 [3] | IC50 [4] | IC50 (Insulin receptor) | IC50 [5] | IC50 [6]

COCCc1ccc(OCC(O)CNC(C)C)cc1 (stereo not given) [METOPROLOL]
Not Active: IC50 [2] | Ki [2] | IC50 (Cannabinoid receptor 1) | IC50 [3] | IC50 [4] | IC50 (Insulin receptor) | IC50 [5] | IC50 [6]
